Test results published in PubChem BioAssay (NCI).
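Cultured in 96-well plates, cells were exposed to test compound for 48 hours across five concentrations. Abbreviation: GI50, concentration required for 50% inhibition of growth. TGI: total growth inhibition.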

Experiments:
Assay in all cases: inhibition of tumour cell growth, NCI panel, 48 h
[1] = test system: 786-0 renal
[2] = test system: ACHN renal
[3] = test system: HCC-2998 colon
[4] = test system: HOP-62 NSCLC
[5] = test system: HOP-92 NSCLC
[6] = test system: M14 melanoma
[7] = test system: SF-295 CNS
[8] = test system: SF-539 CNS
[9] = test system: SNB-19 CNS

COC(=O)CCC(NC(=S)N/N=C/c1ccccn1)C(=O)OC (centres undefined)
TGI [1]: > 100 µM | TGI [2]: > 100 µM | TGI [3]: > 100 µM | TGI [4]: > 100 µM | TGI [5]: > 100 µM | TGI [6]: > 100 µM | TGI [7]: > 100 µM | TGI [8]: > 100 µM | TGI [9]: > 100 µM

O=C1/C(=N\O)c2ccccc2S1(=O)=O
TGI [1]: > 100 µM | TGI [2]: > 100 µM | TGI [3]: > 100 µM | TGI [4]: > 100 µM | TGI [5]: > 100 µM | TGI [6]: > 100 µM | TGI [7]: > 100 µM | TGI [8]: > 100 µM | TGI [9]: > 100 µM

C#CCNC(=O)N(CC#C)N=O
TGI [1]: > 100 µM | TGI [2]: > 100 µM | TGI [3]: > 100 µM | TGI [4]: > 100 µM | TGI [5]: > 100 µM | TGI [6]: > 100 µM | TGI [7]: > 100 µM | TGI [8]: > 100 µM | TGI [9]: > 100 µM

N.N.NCCCCCN.O=C([O-])CCl.O=C([O-])CCl.O=C([O-])CCl.O=C([O-])CCl.[Pt+4].[Pt+4]
GI50 [1]: 3.36 µM | TGI [1]: 24.4 µM | GI50 [2]: 3390 nM | TGI [2]: 29.9 µM | GI50 [3]: 11.6 µM | TGI [3]: 28 µM | GI50 [4]: 1360 nM | TGI [4]: 12.5 µM | GI50 [5]: 23.7 µM | TGI [5]: 51.6 µM | GI50 [6]: 9.28 µM | TGI [6]: 33.5 µM | GI50 [7]: 1840 nM | TGI [7]: 86 µM | GI50 [8]: 3080 nM | TGI [8]: 19.8 µM | GI50 [9]: 1940 nM | TGI [9]: 17.2 µM

O=c1cc(-c2ccccc2)oc2ccc(OC/C(=N/O)c3ccccc3)cc12
GI50 [1]: 8.92 µM | TGI [1]: > 50 µM | GI50 [3]: 11 µM | TGI [3]: > 50 µM | GI50 [4]: 9620 nM | TGI [4]: > 50 µM | GI50 [5]: 25.2 µM | TGI [5]: > 50 µM | GI50 [6]: > 50 µM | TGI [6]: > 50 µM | GI50 [7]: 1250 nM | TGI [7]: 3.34 µM | GI50 [8]: 1390 nM | TGI [8]: 2.93 µM | GI50 [9]: 2340 nM | TGI [9]: 35.2 µM

Nc1c(-c2cn(Cc3ccccc3)c3ccccc23)[n+]([O-])c2ccccc2[n+]1[O-]
TGI [1]: > 100 µM | TGI [2]: > 100 µM | TGI [3]: > 100 µM | TGI [5]: 43.1 µM | TGI [6]: 74.3 µM | TGI [7]: 88.7 µM | TGI [9]: > 100 µM

CC1=Nc2ccccc2NC(c2ccoc2)C1 (centres undefined)
TGI [1]: > 100 µM | TGI [2]: > 100 µM | TGI [3]: > 100 µM | TGI [4]: > 100 µM | TGI [5]: > 100 µM | TGI [6]: > 100 µM | TGI [7]: > 100 µM | TGI [8]: > 100 µM | TGI [9]: > 100 µM

Cc1cc([N+](=O)[O-])ccc1NC(=O)C(=O)C(C(=O)c1ccccc1-c1ccccc1)C1OC(=O)c2ccccc21 (centres undefined)
TGI [1]: 32.5 µM | TGI [2]: > 100 µM | TGI [3]: 29.1 µM | TGI [5]: 34 µM | TGI [6]: 27.4 µM | TGI [7]: 50.9 µM | TGI [8]: 21.7 µM | TGI [9]: 12.3 µM

COc1c(C)cc(O)cc1C=O
TGI [1]: > 100 µM | TGI [2]: > 100 µM | TGI [3]: > 100 µM | TGI [4]: > 100 µM | TGI [5]: > 100 µM | TGI [6]: > 100 µM | TGI [7]: > 100 µM | TGI [8]: > 100 µM | TGI [9]: > 100 µM

CC(=O)Nc1ccccc1-c1nc2ccccc2nc1C
TGI [1]: > 100 µM | TGI [2]: > 100 µM | TGI [4]: > 100 µM | TGI [5]: > 100 µM | TGI [6]: > 100 µM | TGI [7]: > 100 µM | TGI [8]: > 100 µM | TGI [9]: > 100 µM

COC(=O)C1=Cc2cc(OC)c(OC)c(OC)c2[C@H](c2cc(OC)c(OC)c(OC)c2)C1C(=O)OC (some centres undefined)
TGI [1]: > 100 µM | TGI [2]: > 100 µM | TGI [3]: > 100 µM | TGI [4]: > 100 µM | TGI [5]: 74.5 µM | TGI [6]: > 100 µM | TGI [7]: > 100 µM | TGI [8]: > 100 µM | TGI [9]: > 100 µM

COc1cccc2ccc(C(=O)c3ccccc3)nc12
TGI [1]: > 100 µM | TGI [2]: > 100 µM | TGI [3]: > 100 µM | TGI [4]: > 100 µM | TGI [6]: > 100 µM | TGI [7]: > 100 µM | TGI [8]: > 100 µM

O=C1CC(c2c(-c3ccccc3)[nH]c3ccccc23)C(=O)N1 (centres undefined)
TGI [1]: > 100 µM | TGI [2]: > 100 µM | TGI [3]: > 100 µM | TGI [4]: > 100 µM | TGI [6]: > 100 µM | TGI [7]: > 100 µM | TGI [8]: > 100 µM

C[C@]12CC[C@@H]3c4cc(OC(F)F)c(O)cc4CC[C@H]3[C@@H]1CC[C@@H]2OS(N)(=O)=O
GI50 [1]: 1.26 µM | TGI [1]: > 100 µM | GI50 [2]: 735 nM | TGI [2]: > 100 µM | GI50 [3]: 1.94 µM | TGI [3]: 33.4 µM | GI50 [4]: 693 nM | TGI [4]: 35.7 µM | GI50 [5]: 6.84 µM | TGI [5]: 79.2 µM | GI50 [6]: 0.511 µM | TGI [6]: 25.9 µM | GI50 [7]: 330 nM | TGI [7]: 3.02 µM | GI50 [8]: 455 nM | TGI [8]: 14.4 µM | GI50 [9]: 551 nM | TGI [9]: > 100 µM

COc1ccc(OC(C)=O)c2c1CCC=CC2=O
TGI [1]: 32.5 µM | TGI [2]: 32 µM | TGI [3]: 32.9 µM | TGI [4]: 28 µM | TGI [5]: 7.49 µM | TGI [6]: 19.7 µM | TGI [7]: 35.4 µM | TGI [8]: 30.9 µM | TGI [9]: 31.4 µM

COC1OC(CO)C(O)C(OC(C)=O)C1NC(=O)N(CCCl)N=O (centres undefined)
TGI [1]: > 100 µM | TGI [2]: > 100 µM | TGI [3]: > 100 µM | TGI [6]: > 100 µM | TGI [7]: > 100 µM | TGI [8]: > 100 µM | TGI [9]: > 100 µM
